Assay results reported in paper PMC7990704 (Nature chemical biology, 2021).
Where two headings read alike, the source gives them in different places. Blank lines part the entries; values can stand above or below the compound they belong to.

Assays:
Cdk2 [1] = molecular target: T1, Cdk2 (Homo sapiens, UniProt P24941, A93C/C118A/C177S/R157C)
pCdk4:cyclinD = pCdk4:cyclinD (Homo sapiens, UniProt P11802); assay: γ-33P radioactivity kinase assay with RB as substrate and 10 μM ATP; format: biochemical
Sequence of pCdk4:cyclinD (P11802 whole entry): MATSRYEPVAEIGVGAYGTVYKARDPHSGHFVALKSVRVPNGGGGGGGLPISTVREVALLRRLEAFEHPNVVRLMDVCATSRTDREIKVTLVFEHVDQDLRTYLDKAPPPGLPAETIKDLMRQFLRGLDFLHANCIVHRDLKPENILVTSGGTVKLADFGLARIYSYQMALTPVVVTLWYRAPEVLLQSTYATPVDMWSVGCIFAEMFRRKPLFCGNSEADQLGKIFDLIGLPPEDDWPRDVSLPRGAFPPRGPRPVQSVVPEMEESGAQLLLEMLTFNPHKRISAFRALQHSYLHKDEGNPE
Sequence of pCdk4:cyclinD (P24385 whole entry partner): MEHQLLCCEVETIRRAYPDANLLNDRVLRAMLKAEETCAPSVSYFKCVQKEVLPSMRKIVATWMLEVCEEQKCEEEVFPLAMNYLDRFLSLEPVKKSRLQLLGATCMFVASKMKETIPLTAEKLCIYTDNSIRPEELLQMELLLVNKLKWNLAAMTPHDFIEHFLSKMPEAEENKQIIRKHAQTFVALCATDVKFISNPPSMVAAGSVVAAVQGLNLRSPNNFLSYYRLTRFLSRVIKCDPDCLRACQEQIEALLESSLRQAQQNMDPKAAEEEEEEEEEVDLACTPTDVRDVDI

cells = settings: cited from earlier work
Cdk2 [2] = molecular target: T1, Cdk2; format: binding
Cdk2 [3] = molecular target: Cdk2 (Homo sapiens, UniProt P24941, A93C/C118A/C177S/S46C)
Cdk2 [4] = test system: Cdk2; parameters: species or system Human

effect on the Aloop-in/out equilibrium (FRET) (Cdk2 [2]; Fig. 4d): did not promote the Aloop-out state
Structure (SMILES): CC(=O)c1c(C)c2cnc(Nc3ccc(N4CCNCC4)cn3)nc2n(C2CCCC2)c1=O [palbociclib]
binding cooperativity with cyclin (in words) (Cdk2 [2]; Fig. 4d, cyclinA): lacked substantial binding cooperativity with cyclin

effect on the Aloop-in/out equilibrium (FRET) (Cdk2 [2]): did not promote the Aloop-out state
Structure (SMILES): CN(C)C(=O)c1cc2cnc(Nc3ccc(N4CCNCC4)cn3)nc2n1C1CCCC1 [ribociclib]
binding cooperativity with cyclin (in words) (Cdk2 [2]): lacked substantial binding cooperativity with cyclin

The next lines start with the compound.

Structure (SMILES): Nc1ncnc2c1ncn2[C@@H]1O[C@H](COP(=O)(O)OP(=O)(O)O)[C@@H](O)[C@H]1O [ADP]
conformational effect on the A-loop (DEER) (Cdk2 [1]; monomeric Cdk2, inhibitor 250 µM): promoted the Aloop-out state

Structure (SMILES): CCN1CCN(Cc2ccc(Nc3ncc(F)c(-c4cc(F)c5nc(C)n(C(C)C)c5c4)n3)nc2)CC1 [abemaciclib]
potency for Cdk4 compared with palbociclib or ribociclib (pCdk4:cyclinD): greater potency
Cdk1 substrate phosphorylation in cells (cells): blocks Cdk1 substrate phosphorylation
cell cycle effect in cells (cells): triggers a G2 arrest

Structure (SMILES): CN1CC[C@H](c2c(O)cc(O)c3c(=O)cc(-c4ccccc4Cl)oc23)[C@H](O)C1 [flavopiridol]
binding cooperativity between inhibitor and cyclin (Cdk2 [2]): 50 fold
conformational effect on the A-loop (DEER) (Cdk2 [1]): increased the Aloop-out1 subpopulation
conformational effect on the αC-helix (DEER) (Cdk2 [3]): population shifts toward the αC-in state
conformational effect on the A-loop (DEER) (Cdk2 [4]): promoted the Aloop-out2 subpopulation
